From the supplement of paper PMC10307832

What was measured:
Assay in all cases: relative viability (nuclei count vs DMSO), 5 days (fraction); higher = more cells survive
[1] = test system: 201T
In short: (§1)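 Lung cancer cell lines, seeded in 1536-well plates, were treated the following day by pin tool with a single drug or with five library-drug doses (not always all listed) in √10 steps on top of a fixed anchor-drug dose. Cells were fixed and nuclei stained in one step after 5 days, and nuclei were counted. Relative viability is the nuclei count for treated wells divided by that for vehicle wells, reported as medians of duplicate plates.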

[2] = test system: NCI-H1666
In short: as §1

[3] = test system: NCI-H441
In short: as §1

[4] = test system: SK-MES-1
In short: as §1

[5] = test system: A-427
In short: as §1

[6] = test system: COR-L23
In short: as §1

[7] = test system: NCI-H596
In short: as §1

[8] = test system: LK-2
In short: as §1

[9] = test system: EKVX
In short: as §1

[10] = test system: NCI-H650
In short: as §1

[11] = test system: HCC-44
In short: as §1

[12] = test system: NCI-H838
In short: as §1

[13] = test system: NCI-H522
In short: as §1

[14] = test system: HARA
In short: as §1

[15] = test system: HCC-15
In short: as §1

[16] = test system: NCI-H23
In short: as §1

[17] = test system: HCC-827
In short: as §1

[18] = test system: LCLC-103H
In short: as §1

[19] = test system: NCI-H1437
In short: as §1

[20] = test system: COR-L 105
In short: as §1

[21] = test system: NCI-H1975
In short: as §1

[22] = test system: SW 900
In short: as §1

[23] = test system: NCI-H520
In short: as §1

With `COc1cc(N2CCC(C(N)=O)CC2)ccc1Nc1nc(N)c(Cl)c(Nc2ccccc2S(=O)(=O)C(C)C)n1` [HG-5-88-01] + Cc1cc(Nc2cc(N3CCN(C)CC3)nc(Sc3ccc(NC(=O)C4CC4)cc3)n2)n[nH]1 [Tozasertib] (partner 0.1 µM) the relative viability ([1]; first compound 0.04 µM) was 0.963, the relative viability ([1]; first compound 0.1265 µM) was 0.903 and the relative viability ([1]; first compound 0.4 µM) was 0.939. It also gave a relative viability ([1]; first compound 1.265 µM) of 0.871, a relative viability ([1]; first compound 4 µM) of 0.911 and a relative viability ([2]; first compound 0.04 µM) of 0.577. For the same compound, the relative viability ([2]; first compound 0.1265 µM) was 0.603, the relative viability ([2]; first compound 0.4 µM) was 0.556 and the relative viability ([2]; first compound 1.265 µM) was 0.498. For the same compound, the relative viability ([2]; first compound 4 µM) was 0.346, the relative viability ([3]; first compound 0.04 µM) was 0.696 and the relative viability ([3]; first compound 0.1265 µM) was 0.632. It also gave a relative viability ([3]; first compound 0.4 µM) of 0.638, a relative viability ([3]; first compound 1.265 µM) of 0.422 and a relative viability ([3]; first compound 4 µM) of 0.332. It also gave a relative viability ([4]; first compound 0.04 µM) of 0.843, a relative viability ([4]; first compound 0.1265 µM) of 0.909 and a relative viability ([4]; first compound 0.4 µM) of 0.833. It also gave a relative viability ([4]; first compound 1.265 µM) of 0.579, a relative viability ([4]; first compound 4 µM) of 0.158 and a relative viability ([5]; first compound 0.04 µM) of 0.193. The relative viability ([5]; first compound 0.1265 µM) was 0.208, the relative viability ([5]; first compound 0.4 µM) was 0.158 and the relative viability ([5]; first compound 1.265 µM) was 0.184. It also gave a relative viability ([5]; first compound 4 µM) of 0.18, a relative viability ([6]; first compound 0.04 µM) of 0.202 and a relative viability ([6]; first compound 0.1265 µM) of 0.196. The relative viability ([6]; first compound 0.4 µM) was 0.168, the relative viability ([6]; first compound 1.265 µM) was 0.165 and the relative viability ([6]; first compound 4 µM) was 0.109. The relative viability ([7]; first compound 0.04 µM) was 0.955, the relative viability ([7]; first compound 0.1265 µM) was 0.907 and the relative viability ([7]; first compound 0.4 µM) was 0.877. For the same compound, the relative viability ([7]; first compound 1.265 µM) was 1.09, the relative viability ([7]; first compound 4 µM) was 1 and the relative viability ([8]; first compound 0.04 µM) was 0.171. The relative viability ([8]; first compound 0.1265 µM) was 0.18, the relative viability ([8]; first compound 0.4 µM) was 0.14 and the relative viability ([8]; first compound 1.265 µM) was 0.18. The relative viability ([8]; first compound 4 µM) was 0.16, the relative viability ([9]; first compound 0.04 µM) was 0.356 and the relative viability ([9]; first compound 0.1265 µM) was 0.396. It also gave a relative viability ([9]; first compound 0.4 µM) of 0.374, a relative viability ([9]; first compound 4 µM) of 0.286 and a relative viability ([10]; first compound 0.04 µM) of 0.765. It also gave a relative viability ([10]; first compound 0.1265 µM) of 0.72, a relative viability ([10]; first compound 0.4 µM) of 0.594 and a relative viability ([10]; first compound 1.265 µM) of 0.461. It also gave a relative viability ([10]; first compound 4 µM) of 0.523, a relative viability ([11]; first compound 0.04 µM) of 1.1 and a relative viability ([11]; first compound 0.1265 µM) of 0.928. For the same compound, the relative viability ([11]; first compound 0.4 µM) was 0.745, the relative viability ([11]; first compound 1.265 µM) was 0.328 and the relative viability ([11]; first compound 4 µM) was 0.14. For the same compound, the relative viability ([12]; first compound 0.04 µM) was 0.234, the relative viability ([12]; first compound 0.1265 µM) was 0.256 and the relative viability ([12]; first compound 0.4 µM) was 0.185. The relative viability ([12]; first compound 1.265 µM) was 0.209, the relative viability ([12]; first compound 4 µM) was 0.21 and the relative viability ([13]; first compound 0.04 µM) was 0.567. It also gave a relative viability ([13]; first compound 0.1265 µM) of 0.454, a relative viability ([13]; first compound 0.4 µM) of 0.584 and a relative viability ([13]; first compound 1.265 µM) of 0.57. The relative viability ([13]; first compound 4 µM) was 0.454, the relative viability ([14]; first compound 0.04 µM) was 0.108 and the relative viability ([14]; first compound 0.1265 µM) was 0.132. It also gave a relative viability ([14]; first compound 0.4 µM) of 0.0858, a relative viability ([14]; first compound 1.265 µM) of 0.099 and a relative viability ([14]; first compound 4 µM) of 0.0727. It also gave a relative viability ([15]; first compound 0.04 µM) of 0.383, a relative viability ([15]; first compound 0.1265 µM) of 0.368 and a relative viability ([15]; first compound 0.4 µM) of 0.373. For the same compound, the relative viability ([15]; first compound 1.265 µM) was 0.107, the relative viability ([15]; first compound 4 µM) was 0.159 and the relative viability ([16]; first compound 0.04 µM) was 0.337. The relative viability ([16]; first compound 0.1265 µM) was 0.388, the relative viability ([16]; first compound 0.4 µM) was 0.32 and the relative viability ([16]; first compound 1.265 µM) was 0.284. The relative viability ([16]; first compound 4 µM) was 0.251, the relative viability ([17]; first compound 0.04 µM) was 0.475 and the relative viability ([17]; first compound 0.1265 µM) was 0.439. The relative viability ([17]; first compound 0.4 µM) was 0.401, the relative viability ([17]; first compound 1.265 µM) was 0.346 and the relative viability ([17]; first compound 4 µM) was 0.263. For the same compound, the relative viability ([18]; first compound 0.04 µM) was 0.483, the relative viability ([18]; first compound 0.1265 µM) was 0.511 and the relative viability ([18]; first compound 0.4 µM) was 0.386. For the same compound, the relative viability ([18]; first compound 1.265 µM) was 0.611, the relative viability ([18]; first compound 4 µM) was 0.345 and the relative viability ([19]; first compound 0.04 µM) was 0.409. It also gave a relative viability ([19]; first compound 0.1265 µM) of 0.398, a relative viability ([19]; first compound 0.4 µM) of 0.356 and a relative viability ([19]; first compound 1.265 µM) of 0.301. The relative viability ([19]; first compound 4 µM) was 0.316, the relative viability ([20]; first compound 0.04 µM) was 0.377 and the relative viability ([20]; first compound 0.1265 µM) was 0.379. For the same compound, the relative viability ([20]; first compound 0.4 µM) was 0.317, the relative viability ([20]; first compound 1.265 µM) was 0.312 and the relative viability ([20]; first compound 4 µM) was 0.42. It also gave a relative viability ([21]; first compound 0.04 µM) of 0.815, a relative viability ([21]; first compound 0.1265 µM) of 0.715 and a relative viability ([21]; first compound 0.4 µM) of 0.565. The relative viability ([21]; first compound 1.265 µM) was 0.251, the relative viability ([21]; first compound 4 µM) was 0.143 and the relative viability ([22]; first compound 0.04 µM) was 0.533. The relative viability ([22]; first compound 0.1265 µM) was 0.656, the relative viability ([22]; first compound 0.4 µM) was 0.652 and the relative viability ([22]; first compound 1.265 µM) was 0.417. For the same compound, the relative viability ([22]; first compound 4 µM) was 0.268, the relative viability ([23]; first compound 0.04 µM) was 0.457 and the relative viability ([23]; first compound 0.1265 µM) was 0.433. The relative viability ([23]; first compound 0.4 µM) was 0.435, the relative viability ([23]; first compound 1.265 µM) was 0.414 and the relative viability ([23]; first compound 4 µM) was 0.452.
